Key:
[1] = test system: IL-13 dependent proliferation of TF-1.8 cells; assay: IL-13 dependent proliferation of TF-1.8 cells (luciferase); assay type: cell-based, human; conditions: 10 μg/ml, titration of IL-13 (FIG. 2A)
Text: Heparin inhibited the proliferation of a human IL-13 responsive cell line. This occurs at very low doses and is not due to a toxic effect of the heparin because other, similarly sulfated polysaccharides, at the same concentrations of IL-13 and polysaccharide have no effect. These experiments utilize the TF-1.8 cells. TF-1.8 cells are a subclone of the TF-1 cells that have been selected for growth in IL-4, and because IL-4 and IL-13 share a receptor these cells are also responsive to IL-13. TF-1 cells were originally established from a bone marrow sample from a person with severe pancytopenia. […]
TF-1.8 cells have been transfected with the firefly luciferase gene contained in the expression vector, pPGK-puromycin-luciferase (Coombe et al, J. Immunol. Methods 215:145-150, 1998). […] The cells are counted with a Coulter Z2 Particle Counter and Size Analyzer (Coulter Electronics, England) and routinely 2.5×10^4 cells are added to microplate wells that contain either no IL-13 (negative control) or various dilutions of IL-13. When the effect of PPS, or other sulfated polysaccharides is to be measured, the wells also contain various concentrations of these molecules. […]
PPS inhibited the proliferation of a human IL-13 responsive cell line. […] When the effect of PPS is to be measured, the wells also contain various concentrations of this molecule. […]

[2] = BIACORE binding of IL-13 proteins to immobilized heparin; conditions: surface plasmon resonance
Text: The optical phenomenon of surface plasmon resonance is used to monitor physical interactions between molecules. Passing a solution of a potential protein ligand (e.g. IL-13) over a sensor surface to which a target (e.g. heparin) is coupled monitors the real-time binding of protein ligands to the immobilized target. Detection is achieved by measuring refractive index changes very close to the sensor surface. When the refractive index is altered, the angle at which plasmon resonance occurs changes and this change directly correlates with the amount of protein interacting with the surface. A BIACORE 2000 sensor chip is conveniently used. It is very sensitive and its microfiuidics ensures that only small amounts of material are required.
Biotinylated heparin is immobilized on the biosensor chip. […] Solutions containing potential protein ligands of interest are injected over the sensor chip surface, and the binding is measured in real time (Femig, In: Proteoglycan protocols, Ed. R. V. Iozzo, Humana Press, Totowa, N.J., USA, 2001). Bacterially expressed recombinant human IL-13 (rhIL-13) readily binds to heparin immobilized by this method. […]
Site directed mutagenesis was performed on IL-13. […] Mutant IL-13 proteins were examined for their ability to bind heparin immobilized on a biosensor chip and binding was assessed using a BIACORE 2000 sensor chip.

IL-13 Rα2 = biological target: T1, IL-13 Rα2 (Homo sapiens, UniProt Q14627); conditions: high affinity; cited from earlier work
T1 sequence (Q14627 27-380): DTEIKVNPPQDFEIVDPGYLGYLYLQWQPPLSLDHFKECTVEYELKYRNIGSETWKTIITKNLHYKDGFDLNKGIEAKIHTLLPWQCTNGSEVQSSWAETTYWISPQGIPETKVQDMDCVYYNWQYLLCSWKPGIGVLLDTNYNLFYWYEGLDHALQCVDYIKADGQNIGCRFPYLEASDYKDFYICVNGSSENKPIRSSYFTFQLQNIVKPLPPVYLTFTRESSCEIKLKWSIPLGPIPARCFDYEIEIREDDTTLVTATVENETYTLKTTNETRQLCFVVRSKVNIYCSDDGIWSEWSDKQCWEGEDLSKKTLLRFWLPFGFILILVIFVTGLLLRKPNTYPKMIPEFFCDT

TF-1 cells = assay: TF-1 cell proliferation induced by IL-13 proteins; assay type: cell-based, human
Method: The ability of sulfated xylans to inhibit IL-13 mediated cell proliferation is size dependent. These experiments utilized the TF-1 cell line from which the TF1.8 cells were derived. The assay is performed as described above with the TF1.8 cells the differences being the concentration of IL-13 required for cell growth and the fact that cell number is determined using a dye. Briefly, proliferation assays are carried out in 96-well microplates suitable for such assays. Cells are washed to remove any cytokine in the growth medium and then resuspended in RPMI/5% w/v FCS and routinely 2.5×10^4 cells are added to microplate wells that contain either no IL-13 (negative control) or various dilutions of IL-13. When the effect of the different sized sulfated xylans was measured, the wells also contained various concentrations of these molecules and the IL-13 concentration was held constant at 2.5 ng/ml. The cells proliferated for 48 hours, after which the number of cells present was quantified by staining with […] of the AQUEOUS ONE dye for 3 hours and then absorbance was read at 490 nm.
The IL-13R111 wild type and the IL-13Q111 variant are shown for comparison.
Details of the assay are given in Example 6.

IL-13Rα1 = biological target: T2, IL-13Rα1 (Homo sapiens, UniProt P78552); conditions: low-moderate affinity; read-out: affinity of IL-13Rα1 by itself for IL-13; cited from earlier work
T2 sequence (P78552 22-427): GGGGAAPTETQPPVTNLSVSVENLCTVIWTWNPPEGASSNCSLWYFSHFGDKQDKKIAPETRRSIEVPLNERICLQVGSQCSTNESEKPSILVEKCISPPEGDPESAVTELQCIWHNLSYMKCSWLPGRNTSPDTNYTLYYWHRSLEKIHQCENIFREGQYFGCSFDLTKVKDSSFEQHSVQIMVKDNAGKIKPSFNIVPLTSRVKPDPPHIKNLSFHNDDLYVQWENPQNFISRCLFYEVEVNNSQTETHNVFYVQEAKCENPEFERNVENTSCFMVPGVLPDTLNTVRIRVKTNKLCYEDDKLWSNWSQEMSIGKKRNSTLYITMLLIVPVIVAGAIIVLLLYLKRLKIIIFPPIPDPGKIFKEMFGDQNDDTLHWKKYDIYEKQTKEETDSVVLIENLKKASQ

Compound | inhibition of IL-13 mediated cell proliferation [1] | binding to heparin immobilized on BIACORE sensor chip ([2]; listed as rhIL-13) | binding to heparin immobilized on BIACORE sensor chip ([2]; listed as wild type IL-13) | Kd (IL-13 Rα2) [nM] | Concentration of IL-13 required for 50% TF-1 cell proliferation ED50 ave (TF-1 cells) [ng/mL] | cell proliferative activity in the TF-1 cell assay (TF-1 cells; FIG. 7A) | Kd (IL-13Rα1) [nM]
O=S(=O)(O)OC[C@H]1O[C@@](COS(=O)(=O)O)(O[C@H]2O[C@H](COS(=O)(=O)O)[C@@H](OS(=O)(=O)O)[C@H](OS(=O)(=O)O)[C@H]2OS(=O)(=O)O)[C@@H](OS(=O)(=O)O)[C@@H]1OS(=O)(=O)O [sucrose octasulfate] | very little inhibitory activity |  |  |  |  |  | 
IL-13 WT (R111): wild type human IL-13 with arginine in the 111 position; 1IJZ.pdb monomer in docking |  | readily binds | binds heparin more strongly | 0.5 to 1.2 | 1.2 | comparable | 2 to 10

From US9964543B2, “Selection of medicaments that modulate the function and activity of interleukin 13” (GLYCAN BIOSCIENCES LLC, priority 2007, dated 2018)
